Entries after “also recorded” stand apart in the source; their conditions may differ.
Target: T1, α-carbonic anhydrase of L. rhamnosus (LrhCA) (Lacticaseibacillus rhamnosus, UniProt A0A809N5C7)
T1 sequence (A0A809N5C7 1-215): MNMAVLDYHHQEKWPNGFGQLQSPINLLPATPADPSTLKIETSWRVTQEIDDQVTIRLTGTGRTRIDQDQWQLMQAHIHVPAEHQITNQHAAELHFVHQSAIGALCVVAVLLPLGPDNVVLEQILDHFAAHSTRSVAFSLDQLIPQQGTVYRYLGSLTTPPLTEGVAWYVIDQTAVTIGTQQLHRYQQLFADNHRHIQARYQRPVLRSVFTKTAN
Assay: Sulfonamide inhibition of LrhCA, stopped-flow CO2 hydrase assay
Format: biochemical, Lactobacillus rhamnosus GG
Conditions: Ki LrhCA

Compound	Ki [µM]
CC1(C)O[C@@H]2[C@@H](CO[C@@]3(COS(N)(=O)=O)OC(C)(C)O[C@@H]23)O1 [TPM, topiramate, reference compound]	0.508
Cc1onc(-c2ccccc2)c1-c1ccc(S(N)(=O)=O)cc1 [VLX, valdecoxib, reference compound]	> 10
CC(=O)/N=c1/sc(S(N)(=O)=O)nn1C [MZA, methazolamide, reference compound]	0.837
O=C1NS(=O)(=O)c2ccccc21 [SAC, saccharin, reference compound]	> 10
NS(=O)(=O)c1ccc(S(=O)(=O)Nc2cccc3c(Cl)c[nH]c23)cc1 [IND, indisulam, reference compound]	> 10
NS(=O)(=O)c1ccc(CO)cc1 [compound 16]	6.01
NS(=O)(=O)c1ccc(N2CCCCS2(=O)=O)cc1 [SLT, reference compound]	9.31
Nc1cc(Cl)c(S(N)(=O)=O)cc1S(N)(=O)=O [compound 12]	7.93
Nc1ccc(S(N)(=O)=O)cc1Cl [compound 8]	8.98
CCN[C@H]1CN(CCCOC)S(=O)(=O)c2sc(S(N)(=O)=O)cc21 [BRZ, brinzolamide, reference compound]	0.433
Nc1nccc(Nc2ccc(S(N)(=O)=O)cc2)n1 [compound 19]	4.41
Cc1ccc(S(N)(=O)=O)cc1 [compound 4]	5.6
Nc1ccc(S(=O)(=O)Nc2nnc(S(N)(=O)=O)s2)cc1	0.319
NS(=O)(=O)Cc1noc2ccccc12 [ZNS, reference compound]	8.95
NS(=O)(=O)c1nnc(NS(=O)(=O)c2ccccc2)s1 [BZA, benzolamide, reference compound]	0.387
Nc1cc(C(F)(F)F)c(S(N)(=O)=O)cc1S(N)(=O)=O [compound 11]	7.56
Nc1ccc(S(N)(=O)=O)cc1Br [compound 9, 3-bromo-4-amino-benzenesulfonamide]	> 10
NS(=O)(=O)c1ccc(C(=O)O)cc1 [compound 18]	2.71
Nc1nnc(S(N)(=O)=O)s1 [compound 13, 5-amino-1,3,4-thiadizole-2-sulfonamide]	0.866

Same assay, conditions: stopped-flow CO2 hydrase assay; mean from three different assays, errors 5–10%; recombinant LrhCA; 15 min preincubation at room temperature; read-out: Ki LrhCA

Compound	Ki [µM]
NCc1ccc(S(N)(=O)=O)cc1 [compound 5, 4-aminomethyl-benzenesulfonamides]	> 10
NS(=O)(=O)c1cc2c(cc1Cl)NCNS2(=O)=O [HCT, hydrochlorothiazide, reference compound]	> 10
4-(4-sulfanilyl-aminomethyl)-benzenesulfonamide [compound 23]	0.487
Nc1ccc(S(=O)(=O)Nc2ccc(S(N)(=O)=O)cc2)cc1 [compound 22]	0.559
NS(=O)(=O)c1cc(Cl)cc(Cl)c1O [compound 10]	5.03
4-(2-hydroxymethyl-4-nitrophenyl-sulfonamido)ethylbenzenesulfonamide [compound 24]	0.403
NS(=O)(=O)c1ccc(CCNS(=O)(=O)c2ccc([N+](=O)[O-])cc2CO)cc1	0.378
NS(=O)(=O)c1cccc(S(N)(=O)=O)c1 [compound 3]	3.02

Target: hCA I (human carbonic anhydrase isozyme I)
Assay: not given
Conditions: human recombinant isozyme; stopped-flow CO2 hydrase assay; data published previously, ref Supuran [2008]; cited from earlier work

Compound	Ki [µM]
O=C1NS(=O)(=O)c2ccccc21 [SAC, saccharin, reference compound]	18.5
Cc1ccc(S(N)(=O)=O)cc1 [compound 4]	78.5
NS(=O)(=O)c1cccc(S(N)(=O)=O)c1 [compound 3]	0.079

Tested on: L. rhamnosus GG
Assay: In vitro inhibition assay with acetazolamide: growth of L. rhamnosus GG culture (OD595)
Conditions: AAZ 1 nM to 10 mM in MRS, 37 °C, anaerobic and aerobic, 96 h, OD595 at 0, 24, 48, 72, 96 h

Compound	Effect of acetazolamide on cell growth of L. rhamnosus GG (OD595)
CC(=O)Nc1nnc(S(N)(=O)=O)s1 [AAZ, acetazolamide]	very little or no inhibitory effect on cell growth; also recorded: no significant effect on the growth

Same assay, conditions: AAZ 1 nM to 10 mM in MRS, 37 °C, anaerobic and aerobic, 96 h, OD595 at 0, 24, 48, 72, 96 h; listed as Acetazolamide

Compound	Effect of acetazolamide on cell growth of L. rhamnosus GG (OD595)
CC(=O)Nc1nnc(S(N)(=O)=O)s1 [AAZ, acetazolamide]	marginal inhibitory effect on cell growth

Same assay, conditions: AAZ 1 nM to 10 mM in MRS, 37 °C, anaerobic and aerobic, 96 h, OD595 at 0, 24, 48, 72, 96 h; listed as acetazolamide

Compound	Effect of acetazolamide on cell growth of L. rhamnosus GG (OD595)
CC(=O)Nc1nnc(S(N)(=O)=O)s1 [AAZ, acetazolamide]	no significant effect on cell growth
